Test results: US20250145628A1, “PYRAZOLOPYRIMIDINES, COMPOSITIONS COMPRISING THEM AND USES THEREOF” (Novo Nordisk A/S, priority 2022, published 2025)

Tests used:
human CB1 receptor [1] = molecular target: T1, human CB1 receptor (Homo sapiens, UniProt P21554); test: bioSensAll GAPL-Gi2 BRET biosensor assay (antagonism of CP-55,940); assay type: cell-based; settings: HEK293 cells transfected with hCB1 and GAPL-Gi2 biosensor, EC75 of CP-55,940 (0.1 nM), overnight incubation, read-out: CB1 wt Gi2 IC50
T1 construct: expressed in transfected cells; host or cells: HEK293
T1 sequence (P21554 whole entry): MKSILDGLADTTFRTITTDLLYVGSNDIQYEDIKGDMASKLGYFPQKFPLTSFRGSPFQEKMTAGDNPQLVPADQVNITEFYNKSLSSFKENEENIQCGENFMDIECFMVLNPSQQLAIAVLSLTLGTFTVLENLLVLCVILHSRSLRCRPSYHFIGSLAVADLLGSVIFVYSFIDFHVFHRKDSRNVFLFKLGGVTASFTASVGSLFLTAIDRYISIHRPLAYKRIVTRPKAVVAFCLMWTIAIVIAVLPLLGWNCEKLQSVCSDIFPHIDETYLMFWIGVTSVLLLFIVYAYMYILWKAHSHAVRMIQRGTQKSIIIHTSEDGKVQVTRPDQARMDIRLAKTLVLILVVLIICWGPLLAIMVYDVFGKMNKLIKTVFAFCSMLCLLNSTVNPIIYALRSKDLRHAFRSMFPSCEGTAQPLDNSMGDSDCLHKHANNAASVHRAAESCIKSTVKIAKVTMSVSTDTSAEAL
Method: (§1) Using polyethylenimine (PEI) transfection agent, HEK293 cells were transfected in suspension with the human CB1 or CB1b receptor and one of the following bioSensAll® assays: GAPL-Gi2, or β-arrestin plasma membrane (PM) translocation biosensor (+GRK2). Cells were directly seeded in 96-well plates immediately following transfection.
(§2) Cells were incubated with coelenterazine (luciferase substrate) and different test compounds prior to the measurement of BRET signals.
i) GAPL sensors are used to monitor the activation of heterotrimeric G proteins at the plasma membrane upon receptor stimulation. Specifically, these multimolecular BRET sensors detect the plasma membrane recruitment of proteins that interact with active Ga subunits in a G protein family-selective manner. G protein activation following receptor stimulation generally leads to an increase in the BRET signal.
(§3) HEK293 cells were maintained in Dulbecco's Modified Eagle Medium (DMEM) (Wisent; cat #319-030-CL: without sodium pyruvate, with 4.5 g/L glucose, without L-glutamine) supplemented with 1% penicillin-streptomycin (Wisent; cat #450-201-EL) and 2 or 10% fetal bovine serum (Wisent cat #090150).
(§4) HEK293 cells were co-transfected with hCB1 or hCB1b and one of the above-listed bioSensAll® assays. For each transfection condition: • the total amount of transfected DNA was kept constant at 1 μg per mL of cell culture to be transfected; whenever necessary, salmon sperm DNA (Invitrogen, cat #15632011) was used as ‘carrier’ DNA to supplement plasmid DNA (i.e., biosensor and receptor); • the PEI (polyethylenimine 25 kDa linear, PolyScience, cat #23966) to DNA ratio (ug:ug) was fixed at 3:1.
(§5) Transfections were carried out as follows: • DNA and PEI were first diluted separately in 150 mM NaCl. The volume of the diluent in each tube corresponds to 5% of the cell culture volume to be transfected. • Once DNA and PEI were diluted, the PEI-containing solution was added to the DNA solution and the DNA/PEI mixture immediately vortexed for 5 seconds. • The DNA/PEI mixture was incubated for at least 20 minutes at room temperature to allow for the formation of DNA/PEI complexes. • During the incubation, HEK293 cells were detached, counted and re-suspended in culture medium (composition specified above). • At the end of the incubation period, the DNA/PEI mixture was added to the cells. • Cells were finally distributed in 96-well plates (White Opaque 96-well/Microplates, Greiner, cat #655083 or CulturPlate-96, White Opaque 96-well Microplate, PerkinElmer, cat #6005688) at a density of 30 000 cells per well.
(§6) At ˜48 hours post-transfection: • Using 450-Select TS Biotek plate washer, culture medium was aspirated and replaced with 100 μl of Hank's Balanced Salt Solution buffer (HBSS) (Wisent, cat #319-067CL: without red phenol; with sodium bicarbonate, with calcium and magnesium, with HEPES) per well. This process was performed a total of two times (i.e., 2 washes). • After the washing step, the HP D300 digital dispenser (Tecan) was used to inject increasing doses (12) of test compounds (ranging from 0-600 nM) to wells. Three to five minutes later, an EC75 of CP-55,940 (0.1 nM for GAPL-Gi2 assay; 100 nM for β-arrestin PM translocation biosensor (+GRK2)) was added to columns 2-12 of each 96-well plate.
(§7) BRET signals were determined by calculating the ratio of light emitted by GFP-acceptor (515 nm) over light emitted by luciferase-donor (400 nm). All BRET ratios were standardized using the equation below with pre-established BRET values for positive and negative controls. The standardized BRET ratio is referred to as universal BRET (uBRET).
(§8) Resulting dose-response curves were fitted using the four-parameter logistic non-linear regression model in GraphPad Prism 9.

human CB1 receptor [2] = molecular target: T1, human CB1 receptor; test: bioSensAll β-arrestin plasma membrane translocation BRET biosensor (+GRK2) assay (antagonism of CP-55,940); assay type: cell-based; settings: HEK293 cells transfected with hCB1 and β-arrestin PM translocation biosensor (+GRK2), EC75 of CP-55,940 (100 nM), overnight incubation, read-out: CB1 wt βarr2 IC50
Method: as §1, §2
ii) The multimolecular β-arrestin membrane recruitment biosensors allow for real-time spatio-temporal monitoring of β-arrestin 1 and β-arrestin 2 following GPCR activation. Specifically, these β-arrestin sensors were designed to detect the recruitment of proteins to the plasma membrane (β-arrestin PM) with localization to compartment resulting in an increased BRET signal.
as §3, §4, §5, §6, §7, §8

Row | Structure (SMILES) | IC50 (human CB1 receptor [1]) | IC50 (human CB1 receptor [2])
1 | CN(CP(C)(C)=O)c1cc(N2CCC(C)(C(N)=O)CC2)n2nc(-c3ccccc3Cl)c(-c3ccc(Cl)cc3)c2n1 [Compound 40, 1-[2-(2-chlorophenyl)-3-(4-chlorophenyl)-5-[dimethylphosphorylmethyl (methyl)amino]pyrazolo[1,5-a]pyrimidin-7-yl]-4-methyl-piperidine-4-carboxamide] | 17.3 nM | 112 nM
2 | O=S1(=O)CCC(Nc2cc(N3CCC[C@H]3CO)nc3c(-c4ccc(Cl)cc4)c(-c4ccccc4Cl)nn23)CC1 [Compound 11, [(2S)-1-[2-(2-chlorophenyl)-3-(4-chlorophenyl)-7-[(1,1-dioxothian-4-yl)amino]pyrazolo[1,5-a]pyrimidin-5-yl]pyrrolidin-2-yl]methanol] | 0.481 nM | 1.33 nM
3 | O[C@H]1CCN(c2cc(-c3ccc(C(F)(F)F)nc3)n3nc(-c4ccccc4Cl)c(-c4ccc(Cl)cc4)c3n2)C1 [Compound 72(S)] | 1.64 nM | 5.25 nM
4 | COc1ccc(-c2cc(N3CCC[C@H]3CO)nc3c(-c4ccc(Cl)cc4)c(-c4ccc(C#N)cc4)nn23)cc1 [Compound 50, 4-[3-(4-chlorophenyl)-5-[(2S)-2-(hydroxymethyl)pyrrolidin-1-yl]-7-(4-methoxyphenyl)pyrazolo[1,5-a]pyrimidin-2-yl]benzonitrile] | 2.21 nM | 4.79 nM
5 | C[C@@H](CO)Oc1cc(-c2ccc(C(F)(F)F)nc2)n2nc(-c3ccccc3Cl)c(-c3ccc(Cl)cc3)c2n1 [Compound 71(S)] | 1.37 nM | 4.07 nM
6 | CNC(=O)CCN(C)c1cc(N2CC(CC(N)=O)C2)n2nc(-c3ccccc3Cl)c(-c3ccc(Cl)cc3)c2n1 [Compound 39, 3-[[7-[3-(2-amino-2-oxo-ethyl)azetidin-1-yl]-2-(2-chlorophenyl)-3-(4-chlorophenyl)pyrazolo[1,5-a]pyrimidin-5-yl]-methyl-amino]-N-methyl-propanamide] | 34.4 nM | 107 nM
7 | CC(C)(O)COc1cc(N2CC(C)(C(N)=O)C2)n2nc(-c3ccc(C#N)nc3)c(-c3ccc(Cl)cc3)c2n1 [Compound 60, 1-[3-(4-chlorophenyl)-2-(6-cyano-3-pyridyl)-5-(2-hydroxy-2-methyl-propoxy)pyrazolo[1,5-a]pyrimidin-7-yl]-3-methyl-azetidine-3-carboxamide] | 1.52 nM | 5.02 nM
8 | CCNC(=O)CN(C)c1cc(N2CCC(C)(C(N)=O)CC2)n2nc(-c3ccccc3Cl)c(-c3ccc(Cl)cc3)c2n1 [Compound 46, 1-[2-(2-chlorophenyl)-3-(4-chlorophenyl)-5-[[2-(ethylamino)-2-oxo-ethyl]-methyl-amino]pyrazolo[1,5-a]pyrimidin-7-yl]-4-methyl-piperidine-4-carboxamide] | 3.79 nM | 29.9 nM
9 | CN(CC(C)(C)O)c1cc(N2CCC(C)(C(N)=O)CC2)n2nc(-c3ccccc3Cl)c(-c3ccc(Cl)cc3)c2n1 [Compound 20, 1-[2-(2-chlorophenyl)-3-(4-chlorophenyl)-5-[(2-hydroxy-2-methyl-propyl)-methyl-amino]pyrazolo[1,5-a]pyrimidin-7-yl]-4-methyl-piperidine-4-carboxamide] | 5.53 nM | 22.8 nM
10 | CNC(=O)[C@H]1CCN1c1cc(N2CCC(C)(C(N)=O)CC2)n2nc(-c3ccccc3Cl)c(-c3ccc(Cl)cc3)c2n1 [Compound 65, 1-[2-(2-chlorophenyl)-3-(4-chlorophenyl)-5-[(2R)-2-(methylcarbamoyl)azetidin-1-yl]pyrazolo[1,5-a]pyrimidin-7-yl]-4-methyl-piperidine-4-carboxamide] | 13.3 nM | 20.6 nM
11 | CC(C)(O)CNc1cc(N2CCC(C)(C(N)=O)CC2)n2nc(-c3ccccc3Cl)c(-c3ccc(Cl)cc3)c2n1 [Compound 49, 1-[2-(2-chlorophenyl)-3-(4-chlorophenyl)-5-[(2-hydroxy-2-methyl-propyl)amino]pyrazolo[1,5-a]pyrimidin-7-yl]-4-methyl-piperidine-4-carboxamide] | 9.13 nM | 25.4 nM
12 | CCOC1(C(N)=O)CCN(c2cc(N(C)CCO)nc3c(-c4ccc(Cl)cc4)c(-c4ccccc4Cl)nn23)CC1 [Compound 43, 1-[2-(2-chlorophenyl)-3-(4-chlorophenyl)-5-[2-hydroxyethyl(methyl)amino]pyrazolo[1,5-a]pyrimidin-7-yl]-4-ethoxy-piperidine-4-carboxamide] | 0.97 nM | 2.75 nM
13 | CC(C)(O)COc1cc(N2CC(C(N)=O)C2)n2nc(-c3ccc(C#N)nc3)c(-c3ccc(Cl)cc3)c2n1 [Compound 59, 1-[3-(4-chlorophenyl)-2-(6-cyano-3-pyridyl)-5-(2-hydroxy-2-methyl-propoxy)pyrazolo [1,5-a]pyrimidin-7-yl]azetidine-3-carboxamide] | 6.21 nM | 21.8 nM
14 | CN(CCC(N)=O)c1cc(N2CC(CC(N)=O)C2)n2nc(-c3ccccc3Cl)c(-c3ccc(Cl)cc3)c2n1 [Compound 24, 3-[[7-[3-(2-amino-2-oxo-ethyl)azetidin-1-yl]-2-(2-chlorophenyl)-3-(4-chlorophenyl)pyrazolo[1,5-a]pyrimidin-5-yl]-methyl-amino]propanamide] | 14.6 nM | 94.6 nM
15 | C[C@H](O)COc1cc(-c2ccc(C(F)(F)F)nc2)n2nc(-c3ccccc3Cl)c(-c3ccc(Cl)cc3)c2n1 [Compound 70(S)] | 1.71 nM | 8.27 nM
16 | OC[C@@H]1CCCN1c1cc(-c2ccc(C(F)(F)F)nc2)n2nc(-c3ccccc3Cl)c(-c3ccc(Cl)cc3)c2n1 [Compound 8, [(2S)-1-[2-(2-chlorophenyl)-3-(4-chlorophenyl)-7-[6-(trifluoromethyl)-3-pyridyl]pyrazolo[1,5-a]pyrimidin-5-yl]pyrrolidin-2-yl]methanol] | 1.8 nM | 4.41 nM
17 | CC1(C(N)=O)CCN(c2cc(N3CC[C@@H]3CC(=O)O)nc3c(-c4ccc(Cl)cc4)c(-c4ccccc4Cl)nn23)CC1 [Compound 19, 2-[(2R)-1-[7-(4-carbamoyl-4-methyl-1-piperidyl)-2-(2-chlorophenyl)-3-(4-chlorophenyl)pyrazolo[1,5-a]pyrimidin-5-yl]azetidin-2-yl]acetic acid] | 1480 nM | > 10000 nM
18 | CC(C)(O)COc1cc(N2CCC(C)(C(N)=O)CC2)n2nc(-c3ccccc3Cl)c(-c3ccc(Cl)cc3)c2n1 [Compound 13, 1-[2-(2-chlorophenyl)-3-(4-chlorophenyl)-5-(2-hydroxy-2-methyl-propoxy)pyrazolo[1,5-a]pyrimidin-7-yl]-4-methyl-piperidine-4-carboxamide] | 1.26 nM | 3.51 nM
19 | COc1ccccc1-c1nn2c(-c3ccc(C(F)(F)F)cc3)cc(N3CCC[C@H]3CO)nc2c1-c1ccc(Cl)cc1 [Compound 6, [(2S)-1-[3-(4-chlorophenyl)-2-(2-methoxyphenyl)-7-[4-(trifluoromethyl)phenyl]pyrazolo[1,5-a]pyrimidin-5-yl]-pyrrolidin-2-yl]methanol] | 14.1 nM | 146 nM
